Results reported in patent US20130184316A1, “METHODS FOR DIAGNOSING AND TREATING CONCUSSIVE DISORDERS” (priority 2010, published 2013).

Experiments:
subject with PCS [1] = experiment: California Verbal Learning Test II (CVLT); format: in vivo, human
Procedure: (§1) A single subject, prospective, double blind, placebo controlled trial of 4AP was then conducted in this individual. IRB approvals were obtained from all participating institutions and Subject gave written informed consent for all parts of the study. After a 4-week medication washout period, the Subject was randomly assigned a week's course of placebo, followed by a weeklong medication washout period, followed by another week on 4-AP (10 mg twice daily). Based on the medication half-life, a one week washout period was presumed to be sufficient. Subject and assessors were blinded to treatment allocation.
(§2) Measurements conducted at identical times at baseline and on each of the subsequent 3 weeks of the study included: • Balance and mobility assessed by Hi-Mat test (Arch. Phys. Med. Rehabil. 2006, 87(3), 437-442; hereby incorporated by reference in its entirety). • Subjective symptom assessment using the Rivermead Post-Concussion Questionnaire (Clin. Rehabil. 2005, 19(8), 878-887; hereby incorporated by reference in its entirety). • Neuropsychological assessment, consisting of the digit span and cancellation tests from the Wechsler Adult Intelligence Scale, 4th edition (Coalson, D. L., Engi-Raiford, S. Wechsler Adult Intelligence Scale, 4th Ed., in Technical and Interpretive Manual, 4th Ed., San Antonio: Pearson (2008); hereby incorporated by reference in its entirety), the California Verbal Learning Test II (CVLT) (Delis, D. C., Kramer, J. H., Kaplan, E., Ober, B. A. in CVLT-II Manual, San Antonio: The Psychological Corporation (2000); hereby incorporated by reference in its entirety), the Verbal Fluency Test (Connors Continuous Performance Test Computer II Program Version 5 Users Manual, Toronto: Multi-Health Systems, Inc. (2002); hereby incorporated by reference in its entirety), and the Connors Continuous Performance Test (J. Nervous Ment. Dis. 1985, 173(6), 353-357; hereby incorporated by reference in its entirety). • Videonystagmography (VNG) and rotary chair (RC) vestibular testing […]

subject with PCS [2] = experiment: Single subject double blind placebo controlled trial of 4AP with open-label rounds, overall findings; format: in vivo, human
Procedure: as §1, §2

subject with PCS [3] = experiment: Empiric clinical trial of 4AP, reported symptoms and side effects; format: in vivo, human
From the text: The study Subject had persisting stress-induced episodes of weakness and dysequilibrium, along with DBN. A crude phenomenological similarity of these symptoms to EA2 was noted. DNA sequencing of Subject's CACNA1A gene was done; no abnormality was found. Given intractable, persisting, and incapacitating nature of Subject's symptoms and the absence of any therapeutic alternatives, an empiric clinical trial of 4AP was agreed upon. Given subject's history of nephrolithiasis, it was felt that 4AP would be less likely to cause significant adverse reactions than acetazolamide. Subject provided written informed consent.
The Subject was treated by oral administration of 4-AP, starting with a minimal dose of 5 mg. […] Treatment continued for about six months, at which point a wash-out period was initiated.
Side effects (initial blurring of vision, insomnia, and dyspepsia) were mild. Given these clinical results, a prospective, double blind case study was performed.

[4] = system: patients with type-2 episodic ataxia (EA2); conditions: literature reports; cited from earlier work
[5] = two open phases, extended medication use

Nc1ccncc1 [4-AP, 4-Amino pyridine]
CVLT-II immediate, percentile (subject with PCS [1]; session 4 Active: blinded, one week on 4-AP 10 mg twice daily, baseline 27, placebo 21, washout 65): 18 percentile | CVLT-II immediate, percentile (subject with PCS [1]; session 5 1st Open: open-label 4AP 10 mg twice daily, 5 weeks after formal study): 69 percentile | CVLT-II immediate, percentile (subject with PCS [1]; session 6 2nd Open: open-label 4AP 10 mg twice daily, 9 weeks after formal study): 93 percentile | Balance/mobility, symptoms and neuropsychological evaluations (subject with PCS [2]; active phase compared with the other blinded phases (baseline, placebo, washout)): similar | Balance/mobility and subjective symptoms (subject with PCS [2]; [5]): improvement | Cancellation and CVLT: cognitive processing speed and auditory memory (subject with PCS [2]; [5]): improved | Side effects (initial blurring of vision, insomnia, and dyspepsia) (subject with PCS [3]; 10 mg twice daily): mild | Symptoms reported by the Subject (subject with PCS [3]; 10 mg twice daily): significant reduction in all symptoms | Symptoms reported by the Subject (subject with PCS [3]; oral, doses increased to 30 mg per day, lasted for the duration of treatment (about six months)): dramatic improvement in symptoms | Adverse effects observed or reported within 3 hours of administration (subject with PCS [3]; oral, minimal starting dose of 5 mg): No visible adverse effects | Symptom intensity after termination of 4-AP treatment (subject with PCS [3]; wash-out after about six months of treatment): rapid relapse of symptom intensity | Symptoms of EA2 (including downbeat nystagmus) [4]: both relieved and prevented
